Experimental data published in ChEMBL document CHEMBL1126002, “Interphenylene 7-oxabicyclo[2.2.1]heptanes. SQ33,961: a new potent, long-acting thromboxane antagonist” (Bioorg Med Chem Lett, 1991).

Experiments:
[1] = species: Homo sapiens; experiment: Compound was evaluated for the ability to inhibit […] induced platelet aggregation (U-IPA) in human platelet rich plasma.; type: functional; settings: read-out: I50
[2] = species: Homo sapiens; experiment: Compound was evaluated for the ability to inhibit arachidonic acid induced platelet aggregation (AAIPA) in human platelet rich plasma; type: functional; settings: read-out: I50
[3] = tested on: Mus musculus; experiment: Compound (0.2 mpk/po) was evaluated for the ability to protect from U-46,619 induced lethality in mice as a function of time one half of the population survives from time of dosage; type: functional
[4] = target: T1, Thromboxane A2 receptor (Homo sapiens, UniProt P21731); experiment: Compound was evaluated for the receptor binding studies with Thromboxane A2 receptor using [3H]-SQ 29548 as radioligand in human platelet membranes.; type: cell membranes
T1 sequence (P21731 whole entry): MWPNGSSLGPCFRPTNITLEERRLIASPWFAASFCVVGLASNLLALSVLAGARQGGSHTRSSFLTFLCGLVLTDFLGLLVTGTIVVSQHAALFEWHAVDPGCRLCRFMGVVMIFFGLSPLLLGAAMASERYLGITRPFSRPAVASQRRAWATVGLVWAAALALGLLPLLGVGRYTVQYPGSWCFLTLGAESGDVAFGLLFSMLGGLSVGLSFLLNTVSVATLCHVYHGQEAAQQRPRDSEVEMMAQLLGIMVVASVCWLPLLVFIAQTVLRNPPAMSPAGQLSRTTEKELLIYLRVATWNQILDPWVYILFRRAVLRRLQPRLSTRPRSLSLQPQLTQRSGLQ

Row | SMILES | IC50 [1] [nM] | IC50 [2] [nM] | T50 [3] [h] | Kd [4] [nM]
1 | CC(C)(C)CCCCCCNC(=O)c1coc(C2C3CCC(O3)C2Cc2ccccc2CCC(=O)O)n1 (stereo unspecified) | 5 | 3 | – | –
2 | O=C(O)CCc1ccccc1CC1C2CCC(O2)C1c1nc(C(=O)NCCCCc2ccc(Cl)cc2)co1 (stereo unspecified) | 13 | 4 | – | –
3 | CCCCCCCNC(=O)c1coc(C2C3CCC(O3)C2Cc2ccccc2CCC(=O)O)n1 (stereo unspecified) | 13 | 2 | – | –
4 | O=C(O)CCc1ccccc1CC1C2CCC(O2)C1c1nc(C(=O)NC2CCCCC2)co1 (stereo unspecified) | 25 | 3 | – | –
5 | O=C(O)CCc1ccccc1CC1C2CCC(O2)C1c1nc(C(=O)NCCCCC2CCCCC2)co1 (stereo unspecified) | 6 | 2 | 23 | 0.1
6 | CNC(=O)c1coc(C2C3CCC(O3)C2Cc2ccccc2CCC(=O)O)n1 (stereo unspecified) | 81 | 20 | – | –
7 | CCCCCCCCCCNC(=O)c1coc(C2C3CCC(O3)C2Cc2ccccc2CCC(=O)O)n1 (stereo unspecified) | 6 | 1 | – | –
